Test systems include NCI-H460 lung; IGROV1 ovarian; NCI-H23 lung; HCC-2998 colon; NCI-H522 lung; MDA-MB-231 breast; HOP-92 NSCLC; A549 NSCLC; SK-MEL-5 melanoma; MCF7 breast.
What all share (experiment): DTP human tumour cell line panel, 48 h

The structures appear in SMILES notation.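 These data come from cells grown in 96-well plates and exposed to compound for 48 hours at five concentrations. Here, GI50 denotes the concentration required for 50% inhibition of growth. TGI denotes the concentration required for complete inhibition of growth.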

The GI50 is the concentration that inhibits growth by half. One may read the TGI as the concentration at which net growth stops.

Regarding `COc1cc(-c2nc3ccccc3[nH]2)ccc1OCC(=O)N=Nc1c(O)[nH]c2ccc(Cl)cc12`, the GI50 with NCI-H460 lung was 1.15 µM; with IGROV1 ovarian, 1.52 µM; in the experiment with NCI-H23 lung, 1.73 µM; with HCC-2998 colon it was 1.32 µM; in the experiment with NCI-H522 lung, 1.48 µM; with MDA-MB-231 breast, 0.547 µM. The GI50 in the experiment with HOP-92 NSCLC was 1.5 µM; in the experiment on A549 NSCLC, 3.72 µM; in the experiment with SK-MEL-5 melanoma, 1.72 µM; with MCF7 breast, 0.57 µM. Besides, the concentration for total growth inhibition (TGI) with NCI-H460 lung worked out at 2.84 µM; in the experiment on IGROV1 ovarian, 3.05 µM; in the experiment on NCI-H23 lung, 3.48 µM; with HCC-2998 colon it was 2.8 µM; in the experiment with NCI-H522 lung it was 3.48 µM; with MDA-MB-231 breast, 1.86 µM. The concentration for total growth inhibition (TGI) with HOP-92 NSCLC was 3.07 µM; in the experiment with A549 NSCLC it was more than 100 µM; in the experiment on SK-MEL-5 melanoma, 3.2 µM; in the experiment on MCF7 breast, 2.39 µM.
`Cc1ccc(Nc2[nH]c(C(=O)c3ccc(Cl)cc3)c(N)c2C(=S)Nc2ccccc2)nc1`: the GI50 in the experiment with NCI-H460 lung was 23.9 µM; in the experiment on IGROV1 ovarian, 31.3 µM; with NCI-H23 lung it was 35.1 µM; in the experiment on HCC-2998 colon, 15.9 µM; in the experiment with NCI-H522 lung it was 24 µM; with MDA-MB-231 breast, 21.4 µM. The GI50 was 29.5 µM with HOP-92 NSCLC, 37.7 µM in the experiment with A549 NSCLC, 14 µM in the experiment with SK-MEL-5 melanoma and 33.1 µM with MCF7 breast. Further, the TGI in the experiment on NCI-H460 lung was more than 100 µM; in the experiment with IGROV1 ovarian it was more than 100 µM; with NCI-H23 lung, more than 100 µM; with HCC-2998 colon it was 33.2 µM; with NCI-H522 lung, 73.2 µM; in the experiment with MDA-MB-231 breast, 64.7 µM. Also, the TGI in the experiment on HOP-92 NSCLC is more than 100 µM; in the experiment with A549 NSCLC it was more than 100 µM; in the experiment with SK-MEL-5 melanoma, 33.7 µM; in the experiment on MCF7 breast it was more than 100 µM.
In the case of `C[C@@H]1[C@H]2[C@H](C=C3[C@@H]4CC[C@H]5Cc6nc7c(nc6C[C@]5(C)[C@H]4C[C@@H](O)[C@@]32C)C[C@@H]2CC[C@H]3C4=C[C@@H]5O[C@@]6(CC[C@](C)(CO)O6)[C@@H](C)[C@@]5(O)[C@@]4(C)[C@H](O)C[C@@H]3[C@@]2(C)C7)O[C@]12CCC(C)(C)O2`, the GI50 is 0.466 µM in the experiment on NCI-H460 lung; 2.16 µM in the experiment on IGROV1 ovarian; 1.61 µM in the experiment with NCI-H23 lung; 16 µM with HCC-2998 colon; 2.26 µM in the experiment with NCI-H522 lung; 0.469 µM in the experiment on MDA-MB-231 breast. For the same molecule, the GI50 with HOP-92 NSCLC is 0.716 µM; in the experiment on A549 NSCLC, 0.809 µM; in the experiment on SK-MEL-5 melanoma, 0.783 µM; with MCF7 breast, 0.49 µM. Also, the TGI with NCI-H460 lung worked out at 4.95 µM; in the experiment on IGROV1 ovarian, 62.8 µM; in the experiment on NCI-H23 lung it was 23.1 µM; with HCC-2998 colon, 56.5 µM; with NCI-H522 lung, 11.8 µM; in the experiment on MDA-MB-231 breast, 2.62 µM. For the same molecule, the TGI with HOP-92 NSCLC amounted to 13.3 µM; with A549 NSCLC, 14.6 µM; in the experiment with SK-MEL-5 melanoma, 5.2 µM; in the experiment with MCF7 breast, 15.3 µM.
Turning to `Cc1coc2c1CC1OC1(C)CCC1OC1(C)C2` (stereo not given), the concentration for total growth inhibition (TGI) with NCI-H460 lung, with IGROV1 ovarian, with NCI-H23 lung, in the experiment with HCC-2998 colon, in the experiment on NCI-H522 lung and in the experiment on MDA-MB-231 breast was more than 100 µM in each case. Besides, the TGI with HOP-92 NSCLC, with A549 NSCLC, in the experiment on SK-MEL-5 melanoma and with MCF7 breast was more than 100 µM each time.
Take `Cc1c2cnccc2c(C)c2c1c1cc(C(=O)O)ccc1n2C`: the GI50 with NCI-H460 lung was 0.874 µM; with IGROV1 ovarian, 0.911 µM; in the experiment on NCI-H23 lung, 0.774 µM; with HCC-2998 colon, 1.25 µM; with NCI-H522 lung, 0.943 µM; in the experiment with MDA-MB-231 breast, 1.51 µM. For the same molecule, the GI50 is 0.913 µM with HOP-92 NSCLC, 1.68 µM with A549 NSCLC, 0.897 µM in the experiment with SK-MEL-5 melanoma and 1.02 µM with MCF7 breast. Further, the concentration for total growth inhibition (TGI) is 8.46 µM with NCI-H460 lung; 9.84 µM in the experiment on IGROV1 ovarian; 3.28 µM in the experiment with NCI-H23 lung; 4.61 µM in the experiment on HCC-2998 colon; 3.9 µM in the experiment with NCI-H522 lung; 5.81 µM in the experiment with MDA-MB-231 breast. The TGI in the experiment with HOP-92 NSCLC amounted to 5.95 µM; with A549 NSCLC it was 6.68 µM; with SK-MEL-5 melanoma, 2.44 µM; in the experiment with MCF7 breast, 13.6 µM.
Regarding `O=C(CCc1ccco1)NC1CCN(CC2(c3ccc(Cl)cc3)CCC2)CC1`, the GI50 in the experiment with NCI-H460 lung was 15.1 µM; in the experiment on IGROV1 ovarian, 19.5 µM; with NCI-H23 lung it was 16.9 µM; with HCC-2998 colon it was 6.02 µM; in the experiment on NCI-H522 lung it was 14.6 µM; with MDA-MB-231 breast, 5.79 µM. In addition, the GI50 with HOP-92 NSCLC was 4.69 µM; in the experiment on A549 NSCLC, 14.6 µM; in the experiment with SK-MEL-5 melanoma, 15.2 µM; with MCF7 breast, 11.5 µM. Besides, the TGI in the experiment with NCI-H460 lung came out at 28.4 µM; in the experiment on IGROV1 ovarian, 45.8 µM; in the experiment with NCI-H23 lung it was 38.7 µM; in the experiment with HCC-2998 colon, 19.7 µM; in the experiment on NCI-H522 lung it was 30 µM; with MDA-MB-231 breast it was 20.1 µM. For the same molecule, the TGI was 20.3 µM with HOP-92 NSCLC, 32.5 µM in the experiment with A549 NSCLC, 28.7 µM in the experiment with SK-MEL-5 melanoma and 26.7 µM with MCF7 breast.
On to `CC(N)(Cc1c[nH]c2ccccc12)C(=O)O` (stereo not given), for which the GI50 with NCI-H460 lung, in the experiment on IGROV1 ovarian, with NCI-H23 lung, in the experiment on HCC-2998 colon, in the experiment with NCI-H522 lung and in the experiment with MDA-MB-231 breast was more than 2500 µM in each case. The GI50 in the experiment on HOP-92 NSCLC is 1800 µM; with A549 NSCLC it was more than 2500 µM; in the experiment with SK-MEL-5 melanoma it was 2350 µM; in the experiment with MCF7 breast it was more than 2500 µM. The TGI in the experiment with NCI-H460 lung, in the experiment on IGROV1 ovarian, with NCI-H23 lung, with HCC-2998 colon, in the experiment on NCI-H522 lung and in the experiment on MDA-MB-231 breast was more than 2500 µM each time. The TGI in the experiment on HOP-92 NSCLC, in the experiment on A549 NSCLC, in the experiment on SK-MEL-5 melanoma and in the experiment with MCF7 breast was more than 2500 µM each time.
As to `CSC1=Nc2c(c(C)c(-c3ccccc3)n2CCCCl)C2=NC(=O)CN12`, the GI50 is 3.7 µM with NCI-H460 lung; 3.59 µM in the experiment on IGROV1 ovarian; 8.26 µM in the experiment with NCI-H23 lung; 4.52 µM with HCC-2998 colon; 3.86 µM with NCI-H522 lung; 5.64 µM in the experiment on MDA-MB-231 breast. Also, the GI50 in the experiment on HOP-92 NSCLC was 11.5 µM; in the experiment with A549 NSCLC it was 7.68 µM; with SK-MEL-5 melanoma, 3.49 µM; with MCF7 breast, 3.42 µM. In addition, the TGI with NCI-H460 lung was 15 µM; with IGROV1 ovarian, 21.1 µM; in the experiment with NCI-H23 lung, 46.3 µM; with HCC-2998 colon, 19.7 µM; with NCI-H522 lung it was 19.2 µM; with MDA-MB-231 breast it was 23.8 µM. The TGI was found to be 37 µM with HOP-92 NSCLC, 65.8 µM with A549 NSCLC, 14.1 µM in the experiment with SK-MEL-5 melanoma and 16.5 µM in the experiment on MCF7 breast.
With `COc1ccc2c(c1)C(=O)c1c-2c(OCCN(C)C)nc2cc(OC)ccc12`, the 50% growth inhibitory concentration (GI50) in the experiment on NCI-H460 lung was 0.411 µM; in the experiment on IGROV1 ovarian it was 1.01 µM; in the experiment with NCI-H23 lung, 1.36 µM; in the experiment on HCC-2998 colon it was 1.33 µM; in the experiment with NCI-H522 lung it was 0.75 µM; in the experiment with MDA-MB-231 breast it was 1.42 µM. Further, the GI50 was 1.65 µM with HOP-92 NSCLC, 0.804 µM in the experiment with A549 NSCLC, 1.73 µM in the experiment on SK-MEL-5 melanoma and 0.348 µM in the experiment with MCF7 breast. In addition, the TGI in the experiment with NCI-H460 lung stood at 1.51 µM; with IGROV1 ovarian, 6.03 µM; in the experiment on NCI-H23 lung, 3.5 µM; in the experiment with HCC-2998 colon, 2.85 µM; in the experiment with NCI-H522 lung, 2.66 µM; in the experiment on MDA-MB-231 breast, 3.88 µM. The TGI in the experiment with HOP-92 NSCLC worked out at 7.02 µM; in the experiment with A549 NSCLC, 2.8 µM; in the experiment on SK-MEL-5 melanoma, 3.38 µM; in the experiment on MCF7 breast, 1.6 µM.
On to `CCOC(=O)/C(=C/c1ccccc1)C(=O)c1ccccc1`, for which the GI50 in the experiment on NCI-H460 lung was 3.27 µM; in the experiment with IGROV1 ovarian, 2.86 µM; in the experiment with NCI-H23 lung it was 3.75 µM; in the experiment on HCC-2998 colon, 1.93 µM; in the experiment on NCI-H522 lung, 2.14 µM; in the experiment on MDA-MB-231 breast, 3.06 µM. In addition, the GI50 in the experiment on HOP-92 NSCLC was 3.92 µM; in the experiment on A549 NSCLC it was 4.4 µM; in the experiment with SK-MEL-5 melanoma, 2.91 µM; in the experiment with MCF7 breast, 3.13 µM. In addition, the TGI with NCI-H460 lung turned out to be 10.9 µM; with IGROV1 ovarian it was 8.05 µM; in the experiment on NCI-H23 lung, 16.5 µM; with HCC-2998 colon, 3.69 µM; in the experiment with NCI-H522 lung, 4.5 µM; with MDA-MB-231 breast, 12 µM. In addition, the TGI in the experiment on HOP-92 NSCLC came out at 21.8 µM; in the experiment with A549 NSCLC, 19.9 µM; in the experiment on SK-MEL-5 melanoma it was 9.35 µM; in the experiment with MCF7 breast, 15.9 µM.
Consider `CCc1nc(-n2c(CC)nc3ccccc3c2=O)nc(N)c1-c1ccc(Cl)cc1`, for which the GI50 was 14 µM with NCI-H460 lung; 48.5 µM with IGROV1 ovarian; 10.9 µM in the experiment on NCI-H23 lung; 2.41 µM with HCC-2998 colon; more than 100 µM in the experiment with NCI-H522 lung; more than 100 µM in the experiment on MDA-MB-231 breast. For the same molecule, the GI50 in the experiment with HOP-92 NSCLC was 18 µM; in the experiment with A549 NSCLC, 2.38 µM; with SK-MEL-5 melanoma it was 6.84 µM; in the experiment on MCF7 breast, more than 50.9 µM. In addition, the TGI with NCI-H460 lung was more than 100 µM; in the experiment with IGROV1 ovarian it was more than 100 µM; in the experiment on NCI-H23 lung, more than 100 µM; with HCC-2998 colon, more than 21 µM; in the experiment with NCI-H522 lung, more than 100 µM; with MDA-MB-231 breast it was more than 100 µM. In addition, the TGI in the experiment on HOP-92 NSCLC was 99.9 µM; in the experiment with A549 NSCLC it was more than 100 µM; in the experiment on SK-MEL-5 melanoma, more than 100 µM; in the experiment with MCF7 breast it was more than 100 µM.

These data come from PubChem BioAssay (NCI).
